The Ki is the equilibrium dissociation constant of an inhibitor or competing ligand from its target.

Assay [1] concerns the target T1, Relaxin-3 receptor 2 (Homo sapiens, UniProt Q8TDU9). Briefly: Agonist activity at RXFP4 in HEK293T cells assessed as beta-arrestin2 recruitment pretreated with coelenterazine for 10 mins followed by compound addition by BRET assay. It counts as functional, cell-based.
Assay [2] has as its target T1, Relaxin-3 receptor 2. Kind of assay: Binding affinity to LgBiT-tagged RXFP4 (unknown origin) expressed in HEK cells assessed as inhibition constant incubated for 1 hr by NanoBiT assay. It counts as cell-based.
The target in assay [3] is T1, Relaxin-3 receptor 2. Briefly: Agonist activity at RXFP4 (unknown origin) expressed in CHO cells co-transfected with pCRE-galactosidase reporter plasmid assessed as inhibition of forskolin-induced cAMP accumulation incubated for 6 hrs by reporter gene assay. It counts as functional, cell-based.
Assay [4] is described as follows: Selectivity index, ratio of Ki for binding affinity to SmBit-tagged RXFP3 (unknown origin) expressed in HEK cells assessed as inhibition constant to Ki for binding affinity to LgBiT-tagged RXFP4 (unknown origin) expressed in HEK cells assessed as inhibition constant. It counts as cell-based.
The target of assay [5] is T2, Relaxin-3 receptor 1 (Homo sapiens, UniProt Q9NSD7).
T2 sequence (Q9NSD7 whole entry): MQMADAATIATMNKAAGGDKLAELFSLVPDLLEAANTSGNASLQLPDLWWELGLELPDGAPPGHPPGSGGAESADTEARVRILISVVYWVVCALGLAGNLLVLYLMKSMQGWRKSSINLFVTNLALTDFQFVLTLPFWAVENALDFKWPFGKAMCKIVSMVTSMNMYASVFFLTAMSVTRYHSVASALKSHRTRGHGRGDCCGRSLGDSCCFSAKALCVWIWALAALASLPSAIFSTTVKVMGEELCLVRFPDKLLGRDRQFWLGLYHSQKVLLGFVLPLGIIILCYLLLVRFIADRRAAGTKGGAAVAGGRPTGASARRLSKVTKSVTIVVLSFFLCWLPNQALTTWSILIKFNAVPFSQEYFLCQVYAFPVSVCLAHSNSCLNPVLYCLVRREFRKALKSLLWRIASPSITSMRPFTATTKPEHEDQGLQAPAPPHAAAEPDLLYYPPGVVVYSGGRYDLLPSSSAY
Briefly: Agonist activity at RXFP3 (unknown origin) expressed in CHO cells co-transfected with pCRE-galactosidase reporter plasmid assessed as inhibition of forskolin-induced cAMP accumulation incubated for 6 hrs by reporter gene assay. It counts as functional, cell-based. For orientation: Changes in cAMP serve as a functional read-out for many G protein-coupled receptors.

Assay [6] concerns the target T2, Relaxin-3 receptor 1. Kind of assay: Binding affinity to SmBit-tagged RXFP3 (unknown origin) expressed in HEK cells assessed as inhibition constant incubated for 1 hr by NanoBiT assay. It counts as cell-based. The conditions noted are these: read-out: Ki.

Activity calls are given as the source filed them. The calls are words filed in the database; no cut-off is given here. Where a SMILES comes first, the peptide text is derived from it. Bridges are numbered along the chain shown (N, C = ends). Roman numbers before positions name the chains, in order. [ ]: non-standard residue; d: D form. 2Nal = N[C@@H](Cc1ccc2ccccc2c1)C(=O)O; Agb = N=C(N)NCC[C@H](N)C(=O)O

T1 sequence (Q8TDU9 whole entry): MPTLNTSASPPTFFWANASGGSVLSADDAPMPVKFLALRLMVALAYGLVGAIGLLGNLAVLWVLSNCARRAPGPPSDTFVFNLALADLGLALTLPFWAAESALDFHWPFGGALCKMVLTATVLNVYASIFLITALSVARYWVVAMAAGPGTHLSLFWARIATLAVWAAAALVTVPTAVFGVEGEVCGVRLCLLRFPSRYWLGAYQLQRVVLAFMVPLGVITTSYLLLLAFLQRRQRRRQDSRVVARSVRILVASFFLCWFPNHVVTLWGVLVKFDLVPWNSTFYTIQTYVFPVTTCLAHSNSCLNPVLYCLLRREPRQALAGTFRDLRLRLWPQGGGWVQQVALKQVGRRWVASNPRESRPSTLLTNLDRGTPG

`CC[C@H](C)[C@@H]1NC(=O)[C@H](Cc2ccc(O)cc2)NC(=O)[C@H]([C@@H](C)CC)NC(=O)[C@H](C(C)C)NC(=O)[C@H]([C@@H](C)O)NC(=O)[C@H](CCCNC(=N)N)NC(=O)[C@H]([C@@H](C)CC)NC(=O)[C@H](Cc2ccc(O)cc2)NC(=O)[C@H](CCC(=O)O)NC(=O)[C@H](CC(C)C)NC(=O)CNC(=O)[C@@H](NC(=O)[C@H](CC(C)C)NC(=O)[C@H](CCCNC(=N)N)NC(=O)[C@@H](NC(=O)[C@H](CO)NC(=O)[C@H](CCC(=O)O)NC(=O)[C@@H](N)CCCCN)C(C)C)CSSC[C@H](N)C(=O)N[C@@H]([C@@H](C)O)C(=O)N[C@@H](CC(=O)O)C(=O)NCC(=O)N[C@@H](C)C(=O)N[C@@H](CO)C(=O)N[C@@H](CCSC)C(=O)N[C@@H](CCCCN)C(=O)N[C@@H](CC(=O)O)C(=O)N[C@@H](CC(C)C)C(=O)N[C@@H](CO)C(=O)N[C@@H](C)C(=O)N[C@@H](CC(C)C)C(=O)N[C@H](C(=O)O)CSSC[C@@H](C(=O)N[C@@H](C)C(=O)N[C@@H](CO)C(=O)N[C@@H](CO)C(=O)N[C@@H](CCNC(=N)N)C(=O)N[C@@H](Cc2ccc3ccccc3c2)C(=O)O)NC1=O` (I: H-KESVRLCGLEYIRTVIYICASS[Agb][2Nal]-OH / II: H-CTDGASMKDLSALC-OH; disulfide I:7-II:1, I:19-II:14): at Relaxin-3 receptor 2 [1], the result was inactive. For the same compound, on Relaxin-3 receptor 2 [2], the Ki stood at 0.00347 µM. In addition, the EC50 at Relaxin-3 receptor 2 [3] (read-out: EC50) was above 100 µM; at Relaxin-3 receptor 2 [3] (read-out: pEC50 (converted)), above 10 µM.

With `CC[C@H](C)[C@@H]1NC(=O)[C@H](Cc2ccc(O)cc2)NC(=O)[C@H]([C@@H](C)CC)NC(=O)[C@H](C(C)C)NC(=O)[C@H]([C@@H](C)O)NC(=O)[C@H](CCCNC(=N)N)NC(=O)[C@H]([C@@H](C)CC)NC(=O)[C@H](Cc2ccc(O)cc2)NC(=O)[C@H](CCC(=O)O)NC(=O)[C@H](CC(C)C)NC(=O)CNC(=O)[C@@H](N)CSSC[C@H](N)C(=O)N[C@@H]([C@@H](C)O)C(=O)N[C@@H](CC(=O)O)C(=O)NCC(=O)N[C@@H](CS)C(=O)N[C@H](CO)C(=O)N[C@@H](CCSC)C(=O)N[C@@H](CCCCN)C(=O)N[C@@H](CC(=O)O)C(=O)N[C@@H](CC(C)C)C(=O)N[C@@H](CO)C(=O)N[C@@H](C)C(=O)N[C@@H](CC(C)C)C(=O)N[C@H](C(=O)O)CSSC[C@@H](C(=O)NCC(=O)N[C@@H](CO)C(=O)N[C@@H](CO)C(=O)N[C@@H](CCCNC(=N)N)C(=O)N[C@@H](Cc2c[nH]c3ccccc23)C(=O)O)NC1=O`, the Ki turned out to be 0.0182 µM at Relaxin-3 receptor 2 [2] and 0.427 µM at Relaxin-3 receptor 1 [6]. The Ratio Ki in assay [4] stood at 23.4. Besides, the EC50 on Relaxin-3 receptor 1 [5] (cho, read-out: EC50) was above 10 µM; on Relaxin-3 receptor 1 [5] (read-out: pEC50 (converted)) it was above 10 µM; on Relaxin-3 receptor 2 [3] (read-out: EC50), 0.00776 µM.

Take `CC[C@H](C)[C@@H]1NC(=O)[C@H](Cc2ccc(O)cc2)NC(=O)[C@H]([C@@H](C)CC)NC(=O)[C@H](C(C)C)NC(=O)[C@H]([C@@H](C)O)NC(=O)[C@H](CCCNC(=N)N)NC(=O)[C@H]([C@@H](C)CC)NC(=O)[C@H](Cc2ccc(O)cc2)NC(=O)[C@H](CCC(=O)O)NC(=O)[C@H](CC(C)C)NC(=O)CNC(=O)[C@@H](N)CSSC[C@H](N)C(=O)N[C@@H]([C@@H](C)O)C(=O)N[C@@H](CC(=O)O)C(=O)NCC(=O)N[C@@H](CS)C(=O)N[C@H](CO)C(=O)N[C@@H](CCSC)C(=O)N[C@@H](CCCCN)C(=O)N[C@@H](CC(=O)O)C(=O)N[C@@H](CC(C)C)C(=O)N[C@@H](CO)C(=O)N[C@@H](C)C(=O)N[C@@H](CC(C)C)C(=O)N[C@H](C(=O)O)CSSC[C@@H](C(=O)NCC(=O)N[C@@H](C)C(=O)N[C@@H](CO)C(=O)N[C@@H](CCCNC(=N)N)C(=O)N[C@@H](Cc2c[nH]c3ccccc23)C(=O)O)NC1=O`: the Ki at Relaxin-3 receptor 2 [2] was 0.00468 µM; at Relaxin-3 receptor 1 [6] it was 0.0759 µM. For the same compound, in assay [4], the Ratio Ki was 16.2. The EC50 at Relaxin-3 receptor 1 [5] (read-out: EC50) came out at 0.155 µM; on Relaxin-3 receptor 2 [3] (read-out: EC50) it was 0.00166 µM.

The record behind these values is ChEMBL document CHEMBL6078655, “Engineering of Novel Analogues That Are More Receptor-Selective and Potent than the Native Hormone, Insulin-like Peptide 5 (INSL5)” (J Med Chem, 2024).
